Reference: PubChem BioAssay AID1963841 (Molecular Pharmacology Branch, DTP, NCI, 2024)

Test system: 439559-082-T-J2-PDC spheroid viability
Experiment: Anticancer human tumor 439559-082-T-J2-PDC patient-derived colon adenocarcinoma cell line growth inhibition [POLQ]
Conditions: spheroids with HUVEC and MSC; for IC50: curve of first compound; for viability, T/C: stronger effect = lower value
How it was run: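 Three-cell-type spheroids modelling solid tumor plus stroma served as the readout system; POL inhibitors were tested individually and in combination, concentration ranges set by clinical Cmax where known.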
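Note: spheroids exposed to compounds for seven days before readout.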
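Throughout, for viability, T/C: 100% = DMSO vehicle control viability.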

CCc1cc2c(N3CCc4c(cc(Cn5ccnc5)cc4-c4cn(C)nc4C(F)(F)F)C3=O)cc(C)nc2c(OC)n1 + COC1C(OC(N)=O)C(O)C(Oc2ccc3c(O)c(NC(=O)c4ccc(O)c(CC=C(C)C)c4)c(=O)oc3c2C)OC1(C)C
IC50 (second compound 0.0316 µM): > 10 µM | IC50 (second compound 0.1 µM): > 10 µM | IC50 (second compound 0.316 µM): > 10 µM | IC50 (second compound 1 µM): > 10 µM | IC50 (second compound 3.16 µM): > 10 µM | IC50 (second compound 10 µM): > 10 µM | viability, T/C (second compound 0.0316 µM, first compound 0.0316 µM): 104% | viability, T/C (second compound 0.0316 µM, first compound 0.1 µM): 103% | viability, T/C (second compound 0.0316 µM, first compound 0.316 µM): 98.8% | viability, T/C (second compound 0.0316 µM, first compound 1 µM): 102% | viability, T/C (second compound 0.0316 µM, first compound 3.16 µM): 95.4% | viability, T/C (second compound 0.0316 µM, first compound 10 µM): 91.4% | viability, T/C (second compound 0.1 µM, first compound 0.0316 µM): 102% | viability, T/C (second compound 0.1 µM, first compound 0.1 µM): 101% | viability, T/C (second compound 0.1 µM, first compound 0.316 µM): 91.7% | viability, T/C (second compound 0.1 µM, first compound 1 µM): 95.2% | viability, T/C (second compound 0.1 µM, first compound 3.16 µM): 92.7% | viability, T/C (second compound 0.1 µM, first compound 10 µM): 94.3% | viability, T/C (second compound 0.316 µM, first compound 0.0316 µM): 95.5% | viability, T/C (second compound 0.316 µM, first compound 0.1 µM): 93.9% | viability, T/C (second compound 0.316 µM, first compound 0.316 µM): 102% | viability, T/C (second compound 0.316 µM, first compound 1 µM): 97.7% | viability, T/C (second compound 0.316 µM, first compound 3.16 µM): 94.9% | viability, T/C (second compound 0.316 µM, first compound 10 µM): 101% | viability, T/C (second compound 1 µM, first compound 0.0316 µM): 99.4% | viability, T/C (second compound 1 µM, first compound 0.1 µM): 105% | viability, T/C (second compound 1 µM, first compound 0.316 µM): 103% | viability, T/C (second compound 1 µM, first compound 1 µM): 95.7% | viability, T/C (second compound 1 µM, first compound 3.16 µM): 94.3% | viability, T/C (second compound 1 µM, first compound 10 µM): 93.3% | viability, T/C (second compound 3.16 µM, first compound 0.0316 µM): 93.1% | viability, T/C (second compound 3.16 µM, first compound 0.1 µM): 101% | viability, T/C (second compound 3.16 µM, first compound 0.316 µM): 96.6% | viability, T/C (second compound 3.16 µM, first compound 1 µM): 90.4% | viability, T/C (second compound 3.16 µM, first compound 3.16 µM): 95.7% | viability, T/C (second compound 3.16 µM, first compound 10 µM): 94.4% | viability, T/C (second compound 10 µM, first compound 0.0316 µM): 105% | viability, T/C (second compound 10 µM, first compound 0.1 µM): 94.4% | viability, T/C (second compound 10 µM, first compound 0.316 µM): 93.6% | viability, T/C (second compound 10 µM, first compound 1 µM): 91.2% | viability, T/C (second compound 10 µM, first compound 3.16 µM): 95.7% | viability, T/C (second compound 10 µM, first compound 10 µM): 83.8%
